Test results published in patent publication US12195557B2, “Optimised compounds” (AXELIA ONCOLOGY PTY LTD, priority 2017, dated 2025).
Values joined by “and” are separate entries in the source; they are usually repeats but may differ in a detail not shown here. Equal values may be shown once. “Also recorded” adds a separate entry of the source. Read-outs that look alike come from different tables or passages of the source.

What was measured:
[1] = tested on: A/Udorn/307/72 (H3N2) influenza virus; format: in vivo, C57BL/6 mice
[2] = tested on: cytokines/chemokines (IL-6, KC, MCP-1, RANTES); test: Cytokine/chemokine levels in nasal turbinates, trachea, lungs and sera (cytometric bead array); format: in vivo, C57BL/6 mice
[3] = in vitro; settings: rat, rat plasma
[4] = in vitro; settings: dog, hepatocytes
[5] = 3-dose regime, 0.5 and 0.05 nmole doses

Compound: CCC(=O)OCC(CSCC(N)C(=O)NC(CO)C(=O)NCCOCC(=O)NCC(N)=O)OC(=O)CC (stereo not drawn) [INNA-006, Pam2Cys-Ser-PEG]
- progression of influenza virus to the lungs (lung viral titre) ([1]; 0.005 nmoles intranasal 1 day prior to 500 pfu Udorn challenge, n=5, day 5 (Example 4)): partial inhibition
- progression of influenza virus to the lungs (lung viral titre) ([1]; 0.05 nmoles intranasal 1 day prior to challenge, n=10 (Example 5)): partial inhibition
- progression of influenza virus to the lungs (lung viral titre) ([1]; 0.1 nmoles intranasal 1 day prior to 500 pfu Udorn challenge, n=5, day 5 (Example 4)): significantly inhibited
- progression of influenza virus to the lungs (lung viral titre) ([1]; 0.5 nmoles intranasal 1 day prior to challenge, n=10 (Example 5)): significantly inhibited
- progression of influenza virus to the lungs (lung viral titre) ([1]; 5 nmoles intranasal 1 day prior to 500 pfu Udorn challenge, n=5, day 5 (Example 4)): significantly inhibited
- progression of influenza virus to the lungs (lung viral titre) ([1]; 5 nmoles intranasal 1 day prior to challenge, n=10 (Example 5)): significantly inhibited
- times more effective than INNA-003 at inhibiting viral progression ([1]; 3 doses of 0.5 nmoles (Example 7, FIG. 10)): 10-100 times
- progression of influenza virus to the lungs (lung viral titre) ([1]; 3 doses of 0.5 nmoles (days 0, 2, 4), challenge one day after third dose (Example 7)): major reduction in viral load in the lungs; also recorded: significant reduction in dissemination of virus to lungs; also recorded: significantly inhibited
- times more effective than INNA-003 or Pam2Cys-SK4 at inhibiting viral progression ([1]; single dose 1 day prior to challenge (Example 4)): 10-100 times
- fold lower IL-6 in nasal turbinates, 3 doses compared to single dose ([2]; 0.5 nmoles): approximately 25 fold
- cytokine/chemokine levels in nasal turbinates, lungs and sera, 3 repeat doses compared to single dose ([2]; 0.5 or 0.05 nmoles): marked decrease in cytokine/chemokine levels
- level of KC in lungs ([2]; 3-dose regime (both 0.5 and 0.05 nmole doses)): ~14 pg/mL and ~16.3 pg/mL
- fold increase of KC secretion in lungs compared to INNA-003 [2, 5]: 2 fold
- fold increase of KC secretion in lungs compared to saline control [2, 5]: 3 fold
- level of IL-6 in nasal turbinates ([2]; 3 doses (0.5 nmoles), 24 hours after last dose): 15 pg/mL
- fold increase of KC in nasal turbinates versus saline ([2]; mouse, in vivo): 2 fold
- level of KC in nasal turbinates ([2]; mouse, in vivo): ~83 pg/mL
- inflammatory cytokines after pre-treatment and Udorn challenge ([2]; pre-treatment with up to three doses followed by challenge): no detectable change in any of the inflammatory cytokines measured
- KC in the lungs compared to saline control ([2]; single dose): no significance
- RANTES in nasal turbinates compared to INNA-003 ([2]; single dose 0.5 nmoles): increased RANTES secretion
- fold increase in IL-6 levels in nasal turbinates versus saline ([2]; single dose 0.5 nmoles): 98 fold
- level of IL-6 in nasal turbinates ([2]; single dose (0.5 nmoles), 24 hours after dose): ~395 pg/mL
- cytokine/chemokine profile in nasal turbinates compared to saline (IL-6, KC & MCP-1) ([2]; single or 3 repeat doses, 0.5 or 0.05 nmoles, dose-dependent): increase in proinflammatory cytokines and chemokines
- half-life [3]: 5.7 h
- half-life at 0.5 μM [4]: > 6.25 h
- hepatocyte CLint at 0.5 μM [4]: < 2 µL/min/1e6 cells
